Measured values reported in PubChem BioAssay (NCI).
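Five compound concentrations were applied to cells in 96-well plates for 48 hours; endpoints were derived by simple linear interpolation of the resulting dose-response curve. At the TGI there is no net growth.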

How the values were obtained:
Assay in all cases: NCI-60 cell line screen, 48 h
SF-295 CNS = tested on: SF-295 CNS
HCT-15 colon = tested on: HCT-15 colon
HT29 colon = tested on: HT29 colon
TK-10 renal = tested on: TK-10 renal
OVCAR-5 ovarian = tested on: OVCAR-5 ovarian
HOP-62 NSCLC = tested on: HOP-62 NSCLC
HL-60(TB) leukemia = tested on: HL-60(TB) leukemia
SK-MEL-2 melanoma = tested on: SK-MEL-2 melanoma
M14 melanoma = tested on: M14 melanoma
EKVX NSCLC = tested on: EKVX NSCLC
MDA-N = tested on: MDA-N
K-562 leukemia = tested on: K-562 leukemia
SR leukemia = tested on: SR leukemia

| Compound | TGI (SF-295 CNS) [µM] | TGI (HCT-15 colon) [µM] | TGI (HT29 colon) [µM] | TGI (TK-10 renal) [µM] | TGI (OVCAR-5 ovarian) [µM] | TGI (HOP-62 NSCLC) [µM] | TGI (HL-60(TB) leukemia) [µM] | TGI (SK-MEL-2 melanoma) [µM] | TGI (M14 melanoma) [µM] | TGI (EKVX NSCLC) [µM] | TGI (MDA-N) [µM] | TGI (K-562 leukemia) [µM] | TGI (SR leukemia) [µM] |
| --- | --- | --- | --- | --- | --- | --- | --- | --- | --- | --- | --- | --- | --- |
| O=C(Nc1nccs1)NS(=O)(=O)n1cnc2ccccc21 | > 100 | > 100 | > 100 | > 100 | > 100 | > 100 | > 100 | > 100 | > 100 | > 100 |  |  |  |
| CC1=CC(=O)/C(=C/N2C(=O)CNC2=S)C(=O)O1 | > 100 | > 100 | > 100 | > 100 | > 100 | > 100 | > 100 | > 100 | > 100 | > 100 | > 100 |  |  |
| COc1ccc(NC(=S)Nc2c(C)n(C)n(-c3ccccc3)c2=O)cc1 | > 100 | > 100 | > 100 | > 100 | > 100 | > 100 | > 100 |  | > 100 | > 100 | > 100 | > 100 |  |
| CC(=O)OCCCCn1cnc2c(Cl)nc(Nc3ccccc3)nc21 | > 100 | > 100 | > 100 | > 100 | > 100 | > 100 | > 100 |  |  | > 100 | > 100 | > 100 | > 100 |
| CCNC1=C(NC(=O)CCl)C(=O)c2ccccc2C1=O | 36.9 | 33.6 | > 10 | 31.5 | 34.2 | 30.2 | 88.9 |  | 42.6 | 29.6 | 29.2 | > 100 | 80.3 |
| S=C(S)N1CCN(c2ccccc2)CC1 | > 100 | > 100 | > 100 | > 100 | > 100 | > 100 | 64.4 | > 100 | > 100 | > 100 | > 100 | > 100 |  |
| COc1ccc(/C=C2/SC(c3c(O)ccc4ccccc34)N(NC(=O)CCCCCCCCC(=O)NN3C(=O)/C(=C\c4ccc(OC)c(OC)c4)SC3c3c(O)ccc4ccccc34)C2=O)cc1OC (stereo not drawn) | > 100 | > 100 | > 100 | > 100 | > 100 | > 39.8 |  | > 41.6 |  | > 100 | > 100 | 17 | 1.62 |
| COc1ccc(NC(=O)CC(=O)N2N=C(C)C(N=Nc3ccc(C(=O)O)cc3)C2=O)cc1 (stereo not drawn) | > 100 | > 100 | > 100 | > 100 | > 100 | > 100 | > 100 | > 100 | > 100 | > 100 | > 100 | > 100 |  |
| C=CCN(c1cc(OC)c2c(c1[N+](=O)[O-])C(C)(SC)C(=O)N2)S(C)(=O)=O (stereo not drawn) | > 100 | > 100 | > 100 | > 100 |  |  |  | > 100 |  |  | > 100 | > 100 | > 100 |
| Cn1c(O)c(C=Nc2ccc(Cl)cc2Cl)c(=O)n(C)c1=O | > 100 | > 100 | > 100 | > 100 | > 100 | > 100 |  | > 100 | > 100 | > 100 |  | > 100 | > 100 |
| COc1cc(C(=O)N(C(=S)OC23CC4CC(CC(C4)C2)C3)c2ccccc2)cc(OC)c1OC | > 100 | > 100 | 41.8 | > 100 | > 100 | > 100 | 45.8 | 32.1 | 39.7 | 48.1 | 85.8 | > 100 |  |
| CCOC(OCC)[C@H](N)[C@@H](O)[C@@H](O)[C@H]1COC(C)(C)O1 | > 100 | > 100 | > 100 | > 100 | > 100 | > 100 |  | > 100 | > 100 | > 100 | > 100 | > 100 | > 100 |
| C(#C[C@@]12CCC[C@@H]1N(Cc1ccccc1)CO2)c1ccc2c(c1)OCO2 | > 100 | > 100 | > 100 |  | > 100 | > 100 |  | > 100 | > 100 | > 100 | > 100 | > 100 |  |
| COc1ccc2c(c1)OC1c3ccccc3OCC21 (stereo not drawn) | > 100 | > 100 | 93.9 | > 100 | > 100 | > 100 | > 100 | > 100 | > 100 | > 100 | > 100 | > 100 |  |
| ClCCc1ccccc1CC1=NCCc2ccccc21 | > 100 | > 100 | 46.3 | > 100 | > 100 | > 100 | > 100 | 39.1 | 71.5 | > 100 |  | > 100 | > 100 |
| C=COC(=O)N1C2CCCC(Cl)(C(C)=O)C1CC2 (stereo not drawn) | > 100 | > 100 | > 100 | > 100 | > 100 | > 100 |  | > 100 | > 100 | > 100 | > 100 | > 100 | > 100 |
| COc1cc2c3c(c1OC)C(=O)C(=O)C1=C3N(CCC1)CC2 | 76.9 | > 100 | > 100 | > 100 | > 100 | 96.9 | 70.4 | > 100 | 70 | 64.8 |  | 71.8 | 55.5 |
| COc1cc(OC)cc(C(=O)Cc2c(C(=O)c3ccccc3)c3ccccc3n2C(=O)c2ccccc2)c1 | 94.9 | > 100 | > 100 | 98.3 | > 100 | > 100 | > 100 | 65.9 | > 100 | > 100 |  | > 100 | > 100 |
